Data reported in PubChem BioAssay AID1959 (Broad Institute, 2009).
Active and inactive are the calls of the source.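 Rule for the calls: active = growth-inhibition EC50 no more than tenfold above the top tested dose; inconclusive = flat fit between 30% and 70% inhibition, or unreliable fit; inactive = EC50 more than tenfold above the top tested dose.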

Tested on: E. coli NEB5alpha growth, BacTiter-Glo luminescence, 4 h
Assay: antibacterial activity against E. coli NEB5alpha – luminescence, counter-screen for MEX-5/POS-1 RNA-binding inhibitor project, dose response (AID 1959);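 note: pUC19-transformed ampicillin-resistant cells grown in LB with ampicillin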

SMILES | EC50
O=C/C(=C\Nc1ccccn1)c1nc2cc(Cl)ccc2o1 | > 11 µM (inactive)
CCOCCCn1c(=NC(C)=O)c(C#N)cc2c(=O)n3ccccc3nc21 | > 11 µM (inactive)
CCCCn1c(O)c(/C=N/NC(=O)c2ccncc2)c(=O)[nH]c1=O | > 11 µM (inactive)
Cc1ccc(S(=O)(=O)Nc2ccccc2F)cc1C(=O)NNC(=O)c1csc(N2CCOCC2)n1 | > 11 µM (inactive)
Cc1ccc(N/C=C/C(=O)c2sc(-c3ccccc3)nc2C)cc1 | > 11 µM (inactive)
O=C(O)CCc1ccc(-c2ccccc2)n1-c1cccc(C(=O)O)c1 | > 11 µM (inactive)
O=C(Cn1cc(C=C2C(=O)NC(=O)NC2=O)c2ccccc21)NCC1CCCO1 (stereo not given) | > 11 µM (inactive)
CC1(C)CC(=O)C2=C(C1)OC(N)=C(C#N)C2c1ccc2c(c1)OCO2 (stereo not given) | > 5.6 µM (inactive)
Cc1cccn2c(=O)c3cc(C(=O)NC4CCCC4)c(=N)n(CCc4ccccc4)c3nc12 | > 11 µM (inactive)
COC(=O)CCC(=O)OC1(C)C(=O)C2=CN(CCCOC(C)C)C(c3ccc(OC)cc3)=CC2=C(Br)C1=O (stereo not given) | > 11 µM (inactive)
CN1C(=O)c2ccccc2NC(=O)[C@]12O[C@@H]2c1cccc(O)c1 | > 11 µM (inactive)
COc1ccc(/C=C/c2ccc3c(Br)ccc(O)c3n2)cc1 | > 11 µM (inactive)
Cc1nn(-c2ccccc2)c(N2CCCC2)c1/C=C1\N=C(c2ccc(F)cc2)OC1=O | > 11 µM (inactive)
O=C1NC(=S)N(c2ccccc2)C(=O)/C1=C/c1ccco1 | > 11 µM (inactive)
NS(=O)(=O)c1ccc(NC(=O)COC(=O)c2cn(-c3ccccc3)nc2-c2ccc(F)cc2)cc1 | > 11 µM (inactive)
O=C(Cn1cncn1)N/N=C/c1c2ccccc2cc2ccccc12 | > 11 µM (inactive)
CN(C)/C=C/C(=O)c1cnc(-c2ccccc2Cl)s1 | > 11 µM (inactive)
Cc1cc(-c2ccccc2)nc(N/N=C/c2ccc(O)cc2O)n1 | > 11 µM (inactive)
COc1cccc(N2C(=O)NC(=O)/C(=C/c3ccc([N+](=O)[O-])s3)C2=O)c1 | > 11 µM (inactive)
CC(C)(C)NC(=S)NCCc1ccccc1 | > 11 µM (inactive)
CCN(CC)c1nc(-c2nn[nH]n2)nc(N(CC)CC)n1 | > 11 µM (inactive)
Cc1cccn2c(=O)c3cc(C(=O)NCc4ccco4)c(=N)n(C(C)C)c3nc12 | > 11 µM (inactive)
CCCCOC(=O)c1ccc(N=Nc2c(C)c(C#N)c(O)[nH]c2=O)cc1 | > 11 µM (inactive)
Cc1cc(C=C2C(=O)c3ccccc3C2=O)c(C)n1-c1ccc(Cl)cc1 | > 11 µM (inactive)

SMILES | EC50
COc1cc(-c2cc(=O)c3c(O)c(OC)c(OC)c(O)c3o2)ccc1O | > 11 µM (inactive)
Cc1cccc(C)c1NC(=O)CN1C(=O)S/C(=C\c2cccn2-c2cccc(C(=O)O)c2)C1=O | > 11 µM (inactive)
COc1ccc(CCCc2nc3ccccc3[nH]2)cc1 | > 11 µM (inactive)
COc1ccc(N=Cc2c(O)ccc3ccccc23)cc1 | > 11 µM (inactive)
Cc1cccn2c(=O)c3cc(C(=O)NCCN4CCOCC4)c(=N)n(Cc4cccnc4)c3nc12 | > 11 µM (inactive)
CN(C)c1ccc(/C=C/C(=O)c2cccc(Br)c2)cc1 | > 11 µM (inactive)
COC(=O)c1cc(-n2cccc2)ccc1N1CCOCC1 | > 11 µM (inactive)
COc1ccc(CC(=O)NNC2=Nc3cccc4cccc2c34)cc1 | > 11 µM (inactive)
Nc1ccc2nc(-c3cccc(-c4nc5ccc(N)cc5[nH]4)n3)[nH]c2c1 | > 11 µM (inactive)
CC(=O)c1ccc(NC(=O)CSc2nnc(-c3ccncc3)o2)cc1 | > 11 µM (inactive)
O=C1NC(=O)C(=Cc2ccc(-c3ccc(S(=O)(=O)N4CCOCC4)cc3)o2)C(=O)N1 | > 11 µM (inactive)
C=CCN1C(=O)S/C(=C\c2ccc(N3CCOCC3)cc2C)C1=O | > 11 µM (inactive)
CC1(C)CC(=O)C2=C(C1)OC(N)=C(C#N)C2c1cccc(OC(=O)c2ccco2)c1 (stereo not given) | > 11 µM (inactive)
CCCNC(=O)c1ccc2c(=O)c(O)c(-c3ccc(F)cc3)[nH]c2c1 | > 11 µM (inactive)
Cc1cc(N2C(=O)C(O)=C(C(=O)c3cc4ccccc4o3)C2c2ccc([N+](=O)[O-])cc2)no1 (stereo not given) | > 11 µM (inactive)
Cc1ccc(-n2ncc3c(NNC(=O)c4ccco4)ncnc32)cc1C | > 11 µM (inactive)
CN(CC(=O)NCc1ccccn1)S(=O)(=O)c1ccc(Br)cc1 | > 11 µM (inactive)
N#CC1=C(N)OC2=C(C(=O)CCC2)C1c1ccccc1 (stereo not given) | > 11 µM (inactive)
CCC(=O)Nc1ccc2nc3c(=O)[nH]c(=S)[nH]c3nc2c1 | > 11 µM (inactive)
O=C(O)C1OC(Oc2cc3oc(-c4ccccc4)cc(=O)c3c(O)c2O)C(O)C(O)C1O (stereo not given) | > 11 µM (inactive)
Nc1nonc1C(=O)NCCN=Cc1cc(Cc2ccccc2)cc(Br)c1O | > 11 µM (inactive)
CCc1ccc(NC(=O)/C(C#N)=C/c2cc3ccc(C)cc3nc2N2CCOCC2)cc1 | > 11 µM (inactive)
COc1cc2c(cc1OC)C(c1ccc(-c3ccc(Cl)c(Cl)c3)o1)=NCC2 | > 11 µM (inactive)
N#CC1=C(N)Oc2ccc3ccc(O)cc3c2C1c1ccsc1 (stereo not given) | > 11 µM (inactive)

SMILES | EC50
Cc1ccc(/C=C2\Oc3c(ccc(O)c3CN3CCN(CCO)CC3)C2=O)cc1 | > 11 µM (inactive)
Cc1ccc(/C=C2/C(=O)c3ccc(C(=O)O)cc3C2=O)o1 | > 11 µM (inactive)
CCC(C)[C@@H](N)C(=O)N/N=C/c1cccc2nccnc12 (stereo not given in full) | > 11 µM (inactive)
Cc1ccc(-c2nc(C=Nc3ccc(O)cc3)c(O)o2)cc1 | > 11 µM (inactive)
COc1cccc(C2C(C#N)=C(N)OC3=C2C(=O)CCC3)c1OC(=O)c1ccco1 (stereo not given) | > 11 µM (inactive)
CC(=O)c1c(O)cc(O)cc1CC(=O)O | > 11 µM (inactive)
CC1(OC(=O)C2CCCC2)C(=O)C=C2C=C(C3CC3)OC=C2C1=O (stereo not given) | > 11 µM (inactive)
COC(=O)c1ccc(-n2c(CCC(=O)O)ccc2-c2ccccc2)cc1 | > 11 µM (inactive)
COc1cc(/C=N\Nc2ccc([N+](=O)[O-])cc2)ccc1OCC(=O)Nc1ccc(C)c(C)c1 | > 11 µM (inactive)
O=C(O)Cn1cc(/C=C2\C(=O)NC(=O)N(c3ccc(F)cc3)C2=O)c2ccccc21 | > 11 µM (inactive)
Cn1c(=O)c(-c2cc(=O)[nH][nH]2)c(O)c2ccccc21 | > 11 µM (inactive)
Cc1ccc(Sc2ccc(C=C3C(=O)N(C)C(=O)N(C)C3=O)o2)cc1 | > 11 µM (inactive)
Cc1c(C(=O)O)cccc1-n1c(C)cc(C=O)c1C | > 11 µM (inactive)
NC(=O)[C@@H]1CCCN1Cc1c(C(=O)N2CCc3ccccc3C2)nc2ccc(Cl)cn12 | > 11 µM (inactive)
O=C(CSCc1c(Cl)cccc1Cl)NCC1CCCO1 (stereo not given) | > 11 µM (inactive)
CCn1cc(C=C2C(=O)NC(=O)NC2=O)c2ccccc21 | > 11 µM (inactive)
COc1ccc(N/C(=C(/C(Cl)=C(Cl)Cl)[N+](=O)[O-])n2nnc3ccccc32)cc1 | > 11 µM (inactive)
Cc1c(N)cc(N)cc1C(=O)O | > 11 µM (inactive)
Cc1nn(C(C)C(=O)N2CCOCC2)c(=O)c2nn(-c3ccccc3)c(C)c12 (stereo not given) | > 11 µM (inactive)
CCOc1ccc(-n2c(O)c(C=Nc3ccc(N(CC)CC)cc3)c(=O)[nH]c2=O)cc1 | > 11 µM (inactive)
C=CCSc1nnc(N2C(=O)C(O)=C(C(=O)c3ccco3)C2c2ccc(F)cc2)s1 (stereo not given) | > 11 µM (inactive)
CCCCCCn1c(O)c(C=Nc2ccccc2N2CCOCC2)c(=O)[nH]c1=S | > 11 µM (inactive)
COc1cc(/C=C2/C(=O)ON=C2C)ccc1OCc1ccccc1F | > 11 µM (inactive)
Oc1ccc(/C=C/c2cc(O)cc(O)c2)cc1 | > 11 µM (inactive)

SMILES | EC50
Cc1ccc(N(C)S(=O)(=O)c2c(C)noc2/C=C/N(C)C)cc1 | > 11 µM (inactive)
Cc1ccc(NC(=O)COc2ccc(/C=C3/SC(=Nc4ccccc4)N(Cc4cccnc4)C3=O)cc2)cc1 | > 11 µM (inactive)
Oc1c(C=Nc2ccccc2Cl)[nH]c2ccccc12 | > 11 µM (inactive)
CN=C1S/C(=C\c2cn(CC(=O)OC)c3ccccc23)C(=O)N1C | > 11 µM (inactive)
Cc1cc(C(=O)O)ccc1-n1c(C)ccc1C | > 11 µM (inactive)
CCCCC1=CC2=C(c3ccco3)C(=O)C(C)(OC(=O)c3ccc(OC)cc3)C(=O)C2=CN1C1CCCC1 (stereo not given) | > 11 µM (inactive)
CCN(CC)c1ccc(/C=C(/C#N)c2nc3ccccc3[nH]2)c(OC(C)C)c1 | > 11 µM (inactive)
CCCNc1c(F)c(F)c2c(C)c3ccccc3nc2c1F | > 11 µM (inactive)
O=C1c2cccc3cccc(c23)C(=O)N1/N=C/c1c(O)n(-c2ccccc2)c(=O)[nH]c1=O | > 11 µM (inactive)
COc1ccc(N2C(=O)/C(=C/c3ccc(C)o3)C(=O)NC2=S)cc1 | > 11 µM (inactive)
COc1ccc(/C=C2\CCCC(C(=O)C(F)(F)F)=C2O)cc1OC | > 11 µM (inactive)
CCCSc1nnc(N2C(=O)C(O)=C(C(=O)c3ccco3)C2c2ccccc2F)s1 (stereo not given) | > 11 µM (inactive)
Cc1c(O)ccc(-c2n[nH]c(C(=O)O)c2-c2nc3ccccc3s2)c1O | > 11 µM (inactive)
O=C(O)c1ccc(-n2c(-c3cc(-c4ccco4)[nH]n3)n[nH]c2=S)cc1 | > 11 µM (inactive)
COC(=O)C1=C(C)N(c2ccccc2)/C(=C/c2ccco2)C1=O | > 11 µM (inactive)
Cc1ccc(S(=O)(=O)NNc2nc3ccccc3nc2C(F)(F)F)cc1 | > 11 µM (inactive)
O=C(N/N=C/c1c(O)n(CCc2ccc(F)cc2)c(=O)[nH]c1=O)c1ccccc1 | > 11 µM (inactive)
CC1(C)c2[nH]c3ccccc3c2C[C@@H]2C(=O)N(c3ccc(F)cc3F)C(=O)N21 | > 11 µM (inactive)
CCCNC(=O)c1ccc2c(=O)c(O)c(-c3cccc(Br)c3)[nH]c2c1 | > 11 µM (inactive)
CCCCn1c(O)c(C(=O)/C=C/c2ccc3c(c2)OCO3)c(=O)[nH]c1=O | > 11 µM (inactive)
N#C/C(=C(/O)c1cc2ccccc2o1)c1nc2ccccc2s1 | > 11 µM (inactive)
COc1cccc(/C=N/Nc2ncnc(N)c2[N+](=O)[O-])c1OC | > 11 µM (inactive)
Cc1ccc2oc(=O)c(/C=C(\O)c3cccs3)nc2c1 | > 11 µM (inactive)
